The target of data set [1] is T1, ATP-dependent translocase ABCB1 (Homo sapiens, UniProt P08183). Description: Inhibition of MDR1 (unknown origin)-mediated rhodamine 123 uptake expressed in mouse L5178Y cells assessed as fluorescence activity ratio at 4 uM by flow cytometry relative to untreated control. Type of data set: cell-based. (Flow cytometry measures light scatter and fluorescence of single cells or particles in a stream.)

The test system of a further data set is L5178Y. Put plainly: Antiproliferative activity against Mus musculus (mouse) L5178Y cells transfected with mdr1 (unknown origin) after 72 hr by MTT assay. Type of data set: functional, cell-based.
Data set [2] deals with Voltage-gated L-type calcium channel (Rattus norvegicus, UniProt P22002+Q02485+P27732). Description: Inhibition of L-type calcium channel in Rattus norvegicus (rat) heart artery myocytes. The format is tissue-based.
Data set [3] deals with T1, ATP-dependent translocase ABCB1. Put plainly: Inhibition of MDR1 (unknown origin)-mediated rhodamine 123 uptake expressed in mouse L5178Y cells assessed as fluorescence activity ratio at 21.99 uM by flow cytometry relative to untreated control. The format is cell-based.

SMILES strings stand for the structures. Calls of active or inactive are those of the source. The rule behind the calls is not given here.

T1 sequence (P08183 whole entry): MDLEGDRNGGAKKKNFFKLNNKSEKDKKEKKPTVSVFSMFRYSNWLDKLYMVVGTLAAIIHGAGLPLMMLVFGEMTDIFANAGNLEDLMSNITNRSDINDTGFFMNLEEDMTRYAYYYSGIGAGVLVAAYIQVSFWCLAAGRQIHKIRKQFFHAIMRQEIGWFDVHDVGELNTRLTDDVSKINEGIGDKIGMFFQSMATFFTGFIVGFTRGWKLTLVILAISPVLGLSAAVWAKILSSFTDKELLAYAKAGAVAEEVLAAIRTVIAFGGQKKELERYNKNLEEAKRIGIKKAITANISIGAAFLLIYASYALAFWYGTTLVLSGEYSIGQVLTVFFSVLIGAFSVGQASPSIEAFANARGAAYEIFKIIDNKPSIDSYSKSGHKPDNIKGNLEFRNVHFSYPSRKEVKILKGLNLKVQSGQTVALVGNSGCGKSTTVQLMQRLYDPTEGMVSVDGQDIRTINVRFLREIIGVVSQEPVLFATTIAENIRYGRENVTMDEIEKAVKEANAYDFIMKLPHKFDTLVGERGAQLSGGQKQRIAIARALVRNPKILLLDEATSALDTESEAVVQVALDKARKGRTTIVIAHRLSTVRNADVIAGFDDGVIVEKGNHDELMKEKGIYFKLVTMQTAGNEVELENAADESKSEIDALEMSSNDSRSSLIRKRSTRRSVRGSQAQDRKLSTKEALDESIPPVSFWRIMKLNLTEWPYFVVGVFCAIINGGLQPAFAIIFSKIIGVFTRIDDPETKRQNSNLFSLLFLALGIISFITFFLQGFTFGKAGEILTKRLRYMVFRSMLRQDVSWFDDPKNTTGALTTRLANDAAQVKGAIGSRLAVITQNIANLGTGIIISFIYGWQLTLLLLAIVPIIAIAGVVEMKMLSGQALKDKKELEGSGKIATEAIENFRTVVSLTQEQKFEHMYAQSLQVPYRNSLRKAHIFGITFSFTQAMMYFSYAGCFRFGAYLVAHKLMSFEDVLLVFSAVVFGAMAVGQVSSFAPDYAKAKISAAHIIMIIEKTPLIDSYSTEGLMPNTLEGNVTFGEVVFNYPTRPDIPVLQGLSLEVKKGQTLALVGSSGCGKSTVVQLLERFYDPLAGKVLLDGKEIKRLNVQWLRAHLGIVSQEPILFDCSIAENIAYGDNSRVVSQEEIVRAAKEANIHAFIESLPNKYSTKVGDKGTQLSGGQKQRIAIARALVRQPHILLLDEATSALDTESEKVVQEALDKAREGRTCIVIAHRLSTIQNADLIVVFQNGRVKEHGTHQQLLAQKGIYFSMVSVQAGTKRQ

For `CC1=C(C(=O)c2ccccc2)C(c2cccc(O)c2)NC(=O)N1` (stereo unspecified), the RLU in data set [1] is 0.97.
In the case of `COc1ccc(C2NC(S)=NC(C)=C2C(=O)c2ccccc2)cc1OC` (stereo unspecified), the RLU in data set [1] was 1.28.
Turning to `CC1=C(C(=O)c2ccccc2)C(c2ccccc2Cl)NC(=O)N1` (stereo unspecified), the RLU in data set [1] turned out to be 0.98.
On the same count and under the same terms, the same measure for `CC1=C(C(=O)c2ccccc2)C(c2c3ccccc3cc3ccccc23)NC(=O)N1` (stereo unspecified): 4.57; for `CC1=C(C(=O)c2ccccc2)C(c2ccco2)NC(=O)N1` (stereo unspecified): 1.26; for `CC1=C(C(=O)c2ccccc2)C(c2cccc(Cl)c2)NC(=O)N1` (stereo unspecified): 0.89.
Turning to `CC1=C(C(=O)c2ccccc2)C(c2cccc3ccccc23)NC(=O)N1` (stereo unspecified), the RLU in data set [1] was 29.87. The result in the data set with L5178Y was Active.
Take `CC1=C(C(=O)c2ccccc2)C(c2cccc([N+](=O)[O-])c2)NC(=O)N1` (stereo unspecified): in data set [1], the RLU is on record as 1.39.
The same measure, in the same setting: the same measure for `CC1=C(C(=O)c2ccccc2)C(c2cccc(Br)c2)NC(=O)N1` (stereo unspecified): 1.15; for `CC1=C(C(=O)c2ccccc2)C(c2ccccc2[N+](=O)[O-])NC(=O)N1` (stereo unspecified): 0.94.
Take `CC1=C(C(=O)c2ccccc2)C(c2c[nH]c3ccccc23)NC(=O)N1` (stereo unspecified): in data set [1], the RLU is on record as 78.56. The result in the data set with L5178Y was Active.
Consider `CC1=C(C(=O)c2ccccc2)C(c2cccc(Oc3ccccc3)c2)NC(=O)N1` (stereo unspecified), for which, in data set [1], the RLU came out at 1.23.
On the same count and under the same terms, in the case of `CC1=C(C(=O)c2ccccc2)C(c2ccccc2O)NC(=S)N1` (stereo unspecified) it was 1.03; in that of `CC1=C(C(=O)c2ccccc2)C(c2ccccc2[N+](=O)[O-])NC(=S)N1` (stereo unspecified), 0.88.
Take `CC1=C(C(=O)c2ccccc2)C(c2cccc(Oc3ccccc3)c2)NC(=S)N1` (stereo unspecified): the RLU in data set [1] stood at 3.68. In the data set with L5178Y, the outcome was Active.
On to `CC1=C(C(=O)c2ccccc2)C(c2cccc(Cl)c2)NC(=S)N1` (stereo unspecified), for which, in data set [1], the RLU is 1.21.
Still for that read-out and setting: in the case of `CC1=C(C(=O)c2ccccc2)C(c2ccc(Cl)cc2)NC(=S)N1` (stereo unspecified) it was 1.03; in that of `CC1=C(C(=O)c2ccccc2)C(c2cc(Br)c(O)c(Br)c2)NC(=O)N1` (stereo unspecified), 0.82; in that of `COc1cc(OC)cc(C2NC(=O)NC(C)=C2C(=O)c2ccccc2)c1` (stereo unspecified), 1.15.
In the case of `COc1ccc(OC)c(C2NC(=O)NC(C)=C2C(=O)c2ccccc2)c1` (stereo unspecified), the RLU in data set [1] is 36.85. Further, the outcome with L5178Y was Active.
For `COc1cc(C2NC(=S)NC(C)=C2C(=O)c2ccccc2)cc(OC)c1OC` (stereo unspecified), the RLU in data set [1] is given as 0.93.
On the same count and under the same terms, in the case of `CC1=C(C(=O)c2ccccc2)C(c2cccc(Br)c2)NC(=S)N1` (stereo unspecified) it was 1.11; in that of `CC1=C(C(=O)c2ccccc2)C(c2ccccc2)NC(=S)N1` (stereo unspecified), 0.97; in that of `CC1=C(C(=O)c2ccccc2)C(c2ccc(C#N)cc2)NC(=O)N1` (stereo unspecified), 2.11.
Regarding `COc1cc(C2NC(=O)NC(C)=C2C(=O)c2ccccc2)cc(OC)c1OC` (stereo unspecified), the RLU in data set [1] is on record as 0.96.
Same read-out and setting: the same measure for `CC1=C(C(=O)c2ccccc2)C(/C=C/c2ccccc2)NC(=S)N1` (stereo unspecified): 1.28.
For orientation: IC50 means the concentration that inhibits the measured activity by half. For the compound `CC1=C(C(=O)c2ccccc2)C(c2cccc(Oc3ccccc3)c2)C(C(=O)c2ccccc2)=C(C)N1`, the 50% inhibitory concentration (IC50) in data set [2] came to 1120 nM.
In the case of `CC1=C(C(=O)c2ccccc2)C(/C=C/c2ccccc2)NC(=O)N1` (stereo unspecified), the RLU in data set [1] was found to be 0.99.
Still for that read-out and setting: the same measure for `CC1=C(C(=O)c2ccccc2)C(c2ccc(Cl)cc2)NC(=O)N1` (stereo unspecified): 0.96; for `CC1=C(C(=O)c2ccccc2)C(c2ccccc2)NC(=O)N1` (stereo unspecified): 1.09.
On to `COc1ccc(CCN(C)CCCC(C#N)(c2ccc(OC)c(OC)c2)C(C)C)cc1OC` (stereo unspecified) [VERAPAMIL], for which, in data set [3], the RLU is on record as 4.26.
Turning to `CC1=C(C(=O)c2ccccc2)C(c2ccccc2Cl)NC(=S)N1` (stereo unspecified), in data set [1], the RLU was determined as 1.17.

The values are drawn from ChEMBL document CHEMBL3044800, “Synthesis, characterization and anticancer activity of 3-aza-analogues of DP-7” (Med Chem Res, 2012).
